Measured values reported in patent publication US11679111B2, “Fatty acid synthase inhibitors” (priority 2016, dated 2023).

Tests used:
[1] = system: FASN activity in HepG2 cells; test: [3H] glucose and acetate incorporation into lipids in HepG2 cells; format: cell-based; conditions: FIG. 2D, cell line not stated
Protocol: To specifically identify inhibitors of FASN targeting its nucleotide binding pockets Cibacron blue Sepharose was utilized. This medium has been used previously to purify NAD and NADP binding proteins from crude tissues extracts (Miyaguchi et al., 2011; Muratsubaki et al., 1994). FASN enriched extract from lactating pig mammary gland was bound to the resin and labeled with cysteine reactive fluorescein. […] Next, the molecules were tested for their ability to inhibit FASN activity in a HepG2 cell based assay that measured the incorporation of ^3H glucose into lipids (FIG. 1B and FIG. 9).
Incorporation of radiolabeled glucose or acetate in total lipids was measured according to published methods (Haystead and Hardie, 1986). HepG2 cells (80% confluent in 12 wells plates) were starved overnight in MEM Alpha, the medium was then changed with DMEM medium containing 0.1 g/L glucose 10% FBS and 5 μM insulin and 1 μCi 3-[^3H] D-glucose or 1 μCi [^3H]-acetate in addition to different concentrations of each compound. After incubation for 1 hour at 37° C., 5% CO2, the cells were washed with ice cold PBS and detached by treating with 100 μl trypsin for 10 min then 1 ml of ice cold PBS was added. The cells suspension was then sonicated for 3 times in 30 seconds intervals and kept on ice. From each well 1 ml of cell lysate was added to a 4 ml scintillation vial and 2 ml of MicroScint-E was added. The vials were mixed thoroughly then centrifuged for 30 min at 3000 rpm and the ^3H radioactivity was measured by liquid scintillation counting.

HIV-1 = format: cell-based; conditions: supernatants on fresh TZM-bl indicator cells
Protocol: (A) TZM-bl cells were transfected with pNL4-3 provirus plasmid for 48 h in the presence or absence of 10 μM Fasnall or C75 or DMSO (0.01%). Intracellular expression of HIV-1 proteins was monitored by HIVIG-western blot, and β-actin was used as loading control. (B) Supernatant associated virion production was monitored using a p24 ELISA. (C) 48 hours post-transfection, cell culture supernatants were removed and incubated with fresh TZM-bl (indicator) cells for an additional 48 hrs. Values expressed as the mean±standard deviation, and are representative of three independent experiments. p-values were generated with student's t-test. Molecular weight markers (kD) indicated in right margin.
To test further the hypothesis that HIV-1 replication requires FASN activity during the late stages of viral replication, TZM-bl or SupT1 (data not shown) cells were transfected with a HIV-1 provirus (pNL43) in the presence or absence of Fasnall or C75. […] Thus, FASN inhibition reduces nascent HIV-1 virion production without reducing HIV-1 protein synthesis.

BT474 cells = test: Caspase 3/7 activity assay; format: cell-based
Protocol: (§1) The assay was performed using a similar protocol to the one described by Fritz et al (Fritz et al., 2001). Cells were seeded at a density of 10,000 cells/well and treated with different concentrations of HS-106 or C75. After 24 hours, to each well, 50 μl of Caspase assay/lysis buffer (50 mM HEPES pH 7.5, 100 mM KCl, 5 mM EDTA, 10 mM MgC12, 10 mM CHAPS, 20% Sucrose, 10 mM DTT, 10 μM of (Z-DEVD)2-Rh110 (Santa Cruz Biotech) and complete protease inhibitor (Roche))was added. After 6 hours of incubation at 37° C., fluorescence was measured at Ex/Em: 485/535 nm.

SKBR3 cells = test: Caspase 3/7 activity assay; format: cell-based; conditions: SKBR3, 24 hours
Protocol: as §1

[2] = system: MMTV-Neu model of HER2+ breast cancer; test: Efficacy in MMTV-Neu model of HER2+ breast cancer; format: in vivo, mice; conditions: HS-106 30 pmol/kg BIW, Carboplatin 143 pmol/kg weekly, 21 days

SMILES: Cc1sc2ncnc(N[C@H]3CCN(Cc4ccccc4)C3)c2c1C [HS-80, (S)—N-(1-benzylpyrrolidin-3-yl)-5,6-dimethylthieno[2,3-d]pyrimidin-4-amine]
- inhibition of tritiated acetate incorporation into lipids [1]: inhibit the incorporation of tritiated acetate into lipids

SMILES: C=C1C(=O)OC(CCCCCCCC)C1C(=O)O (centres unmarked) [C75, reference compound]
- number of infectious HIV-1 particles (HIV-1): similarly reduced the number of infectious HIV-1 particles
- caspase activity relative to MCF10A cells (BT474 cells; BT474, 24 hours): 10 fold
- caspase activity relative to MCF10A cells (SKBR3 cells): 2 fold

SMILES: CCCCCCC(=O)CCCCCC/C=C/C[C@@H](O)[C@H](O)[C@@](N)(CO)C(=O)O [Myriocin]
- rescue from Fasnall induced apoptosis by ceramide synthesis inhibitor (BT474 cells; BT474, 10 μM pretreatment, 24 hours): modestly rescue the cells

SMILES: Cc1sc2ncnc(N[C@@H]3CCN(Cc4ccccc4)C3)c2c1C [HS-79, (R)—N-(1-benzylpyrrolidin-3-yl)-5,6-dimethylthieno[2,3-d]pyrimidin-4-amine]
- inhibition of tritiated acetate incorporation into lipids [1]: inhibit the incorporation of tritiated acetate into lipids

SMILES: CCCCCCCCCCCCCCOc1ccc(C(=O)O)o1 [TOFA]
- reversal of HS-106 induced caspase 3/7 activity by pretreatment (BT474 cells; BT474, 15 μM TOFA pretreatment): completely reverse the effect of HS-106

SMILES: N.N.O=C([O-])C1(C(=O)[O-])CCC1.[Pt+2] [Carboplatin, reference compound]
- tumors with objective response of stable disease or better [2]: 25%
